Experimental data from US9353090B2, “Heterocyclic carboxylic acids as activators of soluble guanylate cyclase” (Boehringer Ingelheim International GmbH, priority 2014, dated 2016).
In brackets after ≈: the same amount, converted by molar mass.

How the values were obtained:
[1] = target: human soluble guanylate cyclase alpha 1 and beta 1 subunits (sGC) (Homo sapiens (Human), UniProt Q02108+Q02153); assay: sGC cellular activator assay (cGMP, HTRF), in the presence and absence of 50% human serum; type: cell-based; settings: CHO cells stably expressing human sGC alpha 1/beta 1, preincubated with 40 microM ODQ; cGMP by HTRF; Table 2 does not state whether with or without 50% human serum
human soluble guanylate cyclase alpha 1 and beta 1 subunits (sGC), sequence (Q02108 whole entry partner): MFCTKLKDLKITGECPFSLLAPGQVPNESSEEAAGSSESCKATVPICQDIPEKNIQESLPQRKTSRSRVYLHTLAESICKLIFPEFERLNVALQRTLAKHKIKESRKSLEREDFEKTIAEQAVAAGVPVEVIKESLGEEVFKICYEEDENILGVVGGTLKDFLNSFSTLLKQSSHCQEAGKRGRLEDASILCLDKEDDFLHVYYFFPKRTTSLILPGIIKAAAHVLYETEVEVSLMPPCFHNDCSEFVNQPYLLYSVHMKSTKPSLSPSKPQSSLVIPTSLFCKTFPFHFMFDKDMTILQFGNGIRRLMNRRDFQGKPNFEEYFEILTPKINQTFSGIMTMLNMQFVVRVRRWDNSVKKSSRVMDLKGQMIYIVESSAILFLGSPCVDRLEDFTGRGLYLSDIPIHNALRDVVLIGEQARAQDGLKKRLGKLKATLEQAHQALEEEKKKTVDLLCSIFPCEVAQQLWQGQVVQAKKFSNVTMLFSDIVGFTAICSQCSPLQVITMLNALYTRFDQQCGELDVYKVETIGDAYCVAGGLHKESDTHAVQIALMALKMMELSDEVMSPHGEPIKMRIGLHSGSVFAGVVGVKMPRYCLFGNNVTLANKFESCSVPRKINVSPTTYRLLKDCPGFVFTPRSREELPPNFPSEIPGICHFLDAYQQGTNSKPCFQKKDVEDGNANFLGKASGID
human soluble guanylate cyclase alpha 1 and beta 1 subunits (sGC), sequence (Q02153 whole entry): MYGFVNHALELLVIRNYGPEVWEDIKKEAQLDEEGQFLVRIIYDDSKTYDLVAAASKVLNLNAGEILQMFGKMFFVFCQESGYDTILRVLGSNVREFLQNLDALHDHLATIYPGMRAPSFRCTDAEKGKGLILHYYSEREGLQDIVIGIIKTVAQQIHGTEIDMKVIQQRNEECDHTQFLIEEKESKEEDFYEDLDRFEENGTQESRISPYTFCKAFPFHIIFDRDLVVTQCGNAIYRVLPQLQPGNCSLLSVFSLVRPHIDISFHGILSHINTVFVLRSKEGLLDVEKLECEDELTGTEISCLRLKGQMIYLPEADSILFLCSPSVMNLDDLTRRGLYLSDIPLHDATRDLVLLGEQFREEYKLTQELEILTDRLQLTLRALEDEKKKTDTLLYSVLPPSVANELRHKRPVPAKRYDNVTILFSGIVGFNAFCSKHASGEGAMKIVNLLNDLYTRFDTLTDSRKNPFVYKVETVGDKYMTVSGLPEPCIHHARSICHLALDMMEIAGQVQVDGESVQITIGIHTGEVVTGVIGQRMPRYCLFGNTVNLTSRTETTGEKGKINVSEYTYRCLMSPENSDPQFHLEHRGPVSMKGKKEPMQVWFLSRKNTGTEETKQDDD
Summary of the method: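 First, CHO-sGC (human α1β1) cells get 1 h ODQ at 40 microM with IBMX and 0.1% BSA. Finally, cGMP is quantified by HTRF and EC50 computed.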

[2] = Human liver microsome (HLM) metabolic stability assay; type: in vitro ADME; settings: human liver microsomes
Summary of the method: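 Remaining parent measured by LC/MS/MS (ESI, MRM) at 5, 15, 30 and 60 min relative to 0 min. Incubation: 1 uM compound, HLMs, NADPH-started, 37° C., 60 min total, single replicate. Slope of ln(% remaining) gives t1/2 = 0.693/slope, then CLint, CLh and % Qh.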

physchem = settings: kinetic from dmso stock
[3] = pH 2.2, aqueous buffer, Solubility (pH 2.2)
[4] = pH 4.5, aqueous buffer, Solubility (pH 4.5)
[5] = pH 6.8, aqueous buffer, Solubility (pH 6.8)

| SMILES | EC50 [1] | Metabolic stability (Qh %), % hepatic blood flow [2] | solubility at 24 h (physchem; [3]) | solubility at 24 h (physchem; [4]) | solubility at 24 h (physchem; [5]) |
| --- | --- | --- | --- | --- | --- |
| Cc1ccc(OCc2ccc3c(c2)CCN(C2CCOCC2)C3)c(-c2csc(N3C[C@@H]4C[C@]4(C(=O)O)[C@H]3C)n2)c1 [Compound 153] | 14 nM | <24% | 120 µg/mL (≈ 214 µM) | 72 µg/mL (≈ 129 µM) | 47 µg/mL (≈ 84 µM) |
| Cc1ccc(OCc2ccc3c(c2C)CCN(C2CCOCC2)C3)c(-c2csc(N3C[C@@H]4C[C@]4(C(=O)O)[C@H]3C)n2)c1 [Compound 154] | 4 nM | <24% | 110 µg/mL (≈ 192 µM) | 65 µg/mL (≈ 113 µM) | 25 µg/mL (≈ 43.6 µM) |
| Cc1cccc(-c2csc(N3C[C@H]4C[C@@]4(C(=O)O)[C@@H]3C)n2)c1OCc1ccc2c(c1C)CCN(C1CCOCC1)C2 [Compound 155] | 46 nM | <24% | 96 µg/mL (≈ 167 µM) | 69 µg/mL (≈ 120 µM) | 61 µg/mL (≈ 106 µM) |
| Cc1cccc(-c2csc(N3C[C@H]4C[C@@]4(C(=O)O)[C@@H]3C)n2)c1OCc1ccc2c(c1C)CCN(C1COC1)C2 [Compound 156] | 387 nM | <24% | > 140 µg/mL | 0.5 µg/mL (≈ 0.916 µM) | 8.9 µg/mL (≈ 16.3 µM) |
| Cc1cc(COc2c(C)cccc2-c2csc(N3C[C@H]4C[C@@]4(C(=O)O)[C@@H]3C)n2)cc2c1CN(C1CCOCC1)CC2 [Compound 157] | 28 nM | <24% | 97 µg/mL (≈ 169 µM) | 72 µg/mL (≈ 125 µM) | 63 µg/mL (≈ 110 µM) |
| Cc1cc(COc2c(C)cccc2-c2csc(N3C[C@H]4C[C@@]4(C(=O)O)[C@@H]3C)n2)cc2c1CN(C1COC1)CC2 [Compound 158] | 37 nM | <24% | 94 µg/mL (≈ 172 µM) | 53 µg/mL (≈ 97.1 µM) | 65 µg/mL (≈ 119 µM) |
| COC[C@H]1N(c2nc(-c3cccc(C)c3OCc3ccc4c(c3C)CCN(C3CCOCC3)C4)cs2)C[C@@H]2C[C@@]21C(=O)O [Compound 159] | 44 nM | 30% | 120 µg/mL (≈ 199 µM) | 95 µg/mL (≈ 157 µM) | 89 µg/mL (≈ 147 µM) |
| COC[C@H]1N(c2nc(-c3cccc(C)c3OCc3ccc4c(c3C)CCN(C3CCC3)C4)cs2)C[C@@H]2C[C@@]21C(=O)O [Compound 160] | 105 nM | 38% | 120 µg/mL (≈ 209 µM) | < 0.1 µg/mL | 75 µg/mL (≈ 131 µM) |
| COC[C@H]1N(c2nc(-c3cccc(C)c3OCc3cc(C)c4c(c3)CCN(C3COC3)C4)cs2)C[C@@H]2C[C@@]21C(=O)O [Compound 161] | 7 nM | <24% | 110 µg/mL (≈ 191 µM) | 62 µg/mL (≈ 108 µM) | 76 µg/mL (≈ 132 µM) |
| COC[C@H]1N(c2nc(-c3cccc(C)c3OCc3cc(C)c4c(c3)CCN(C3CCOCC3)C4)cs2)C[C@@H]2C[C@@]21C(=O)O [Compound 162] | 4 nM | 39% | 120 µg/mL (≈ 199 µM) | 82 µg/mL (≈ 136 µM) | 75 µg/mL (≈ 124 µM) |
| COC[C@H]1N(c2nc(-c3cc(C)ccc3OCc3ccc4c(c3)CCN(C3CCOCC3)C4)cs2)C[C@@H]2C[C@@]21C(=O)O [Compound 163] | 345 nM | <24% | 110 µg/mL (≈ 187 µM) | 77 µg/mL (≈ 131 µM) | 65 µg/mL (≈ 110 µM) |
| COC[C@H]1N(c2nc(-c3cc(C)ccc3OCc3ccc4c(c3C)CCN(C3CCOCC3)C4)cs2)C[C@@H]2C[C@@]21C(=O)O [Compound 164] | 108 nM | <24% | 120 µg/mL (≈ 199 µM) | 75 µg/mL (≈ 124 µM) | 59 µg/mL (≈ 97.7 µM) |
| CO[C@H]1CN(c2nc(-c3cccc(C)c3OCc3ccc4c(c3C)CCN(C3CCOCC3)C4)cs2)CC[C@H]1C(=O)O [Compound 165] | 12 nM | <24% | 120 µg/mL (≈ 203 µM) | 86 µg/mL (≈ 145 µM) | 77 µg/mL (≈ 130 µM) |
| CO[C@H]1CN(c2nc(-c3cccc(C)c3OCc3ccc4c(c3C)CCN(C3COC3)C4)cs2)CC[C@H]1C(=O)O [Compound 166] | 17 nM | <24% | 110 µg/mL (≈ 195 µM) | 74 µg/mL (≈ 131 µM) | 82 µg/mL (≈ 145 µM) |
| CO[C@H]1CN(c2nc(-c3cccc(C)c3OCc3cc(C)c4c(c3)CCN(C3CCOCC3)C4)cs2)CC[C@H]1C(=O)O [Compound 167] | 10 nM | <24% | 110 µg/mL (≈ 186 µM) | 84 µg/mL (≈ 142 µM) | 82 µg/mL (≈ 139 µM) |
